How the values were obtained:
[1] = system: endothelial cells; assay: ^3H-lyso-PI binding to endothelial cells; parameters: species or system human; settings: 1 μM, 45 min, 25° C.; 10^6 cells per ml
Method: To evaluate whether lyso-PI may directly bind to endothelial cells, endothelial cells (10^6 per ml) were incubated with ^3H-lyso-PI (1 μM [specific activity, ˜10,000 cpm/nmole], 45 min, 25° C.). As a control, endothelial cells were pretreated with LPG (20 μM, 15 min, 25° C.) before the incubation with ^3H-lyso-PI. Following incubation, the cell suspension was layed onto silicone oil (Silicones FC-50, General Electric, Waterford, N.Y.) and cell-bound ^3H-lyso-PI was separated from free-^3H-lyso-PI by centrifugation (10,000 g, 10 min, room temperature). The amount of ^3H-lyso-PI in the cell pellet and in the supernatant were solubilized in Ecoscint (National Diagnostics, Highland Park, N.J.) and quantitated by a β-emission counter (Beckman Instruments, Palo Alto, Calif.).

[2] = system: endothelial cells; assay: Endothelial adhesion to monocytes (MM6) assay; settings: for inhibition of endotoxin-mediated endothelial adhesion to monocytes by LPG fragments: fragments 1-10 μM (2 μM, 1 h in FIG. 21), endotoxin 10 ng/ml 4 h
Method: Endothelial cell were isolated from human umbilical veins by an established method as described. […] In all experiments, 2-4 passages of subcultured endothelial cells were used and were grown on fibronectin-precoated 96-well plates for 2-3 days prior to use.
On the day of the experiment, endothelial cells were treated with endotoxin (E. coli, J5, 10 ng/ml) for 4 h. MM6 (1×10^5 cells) were subsequently added to the endotoxin-stimulated endothelial cells. Monocyte adhesion was performed for 20 min at 37° C. Unbound MM6 cells were removed by washing (3×). Adhesion of MM6 onto endothelium was quantitated by counting the bound MM6 cells under a microscope. […] The values of triplicates were averaged, and variations between triplicates were <5%. […] For experiments to examine if LPG could inhibit endotoxin-mediated monocyte adhesion, the endothelial cells were first preincubated with LPG (2 μM) for 1-2 h at 37° C. prior to the addition of endotoxin.

[3] = system: human umbilical vein endothelial cells; assay: Competition for LPG binding by LPG fragments (FACS); settings: for competition with intact LPG for binding to endothelial cells: fragment 10 μM prior to intact LPG 1 μM; for Percent Inhibition: pretreatment with fragment 10 μM 15 min before intact LPG 1 μM, 15 min, 37° C., means ± SE of 3 experiments
Method: To address whether the lyso-PI and core-PI fragments may mediate cell binding, an indirect approach was used. Endothelial cells (10^6/ml) obtained by mild collagenase treatment were first incubated with either lyso-PI or core-PI (10 μM, 15 min 37° C.) prior to the addition of intact LPG (1 μM, 15 min 37° C.); PGM and PG (10 μM, 15 min 37° C.) were used as controls. Cells were washed, after incubation with anti-LPG mAb as described above (Indirect Immunofluorescence) and subjected to FACS analysis by binding of the intact LPG.

Substance	^3H-lyso-PI bound, of the total input ^3H-lyso-PI [1] [%]	inhibition of endotoxin-mediated endothelial adhesion to monocytes by LPG fragments [2]	competition with intact LPG for binding to endothelial cells [3] [%]	Percent Inhibition [3] [%]	inhibitory effect of co-addition of fragments ([2]; co-addition of PG (2 μM) and core-PI (2 μM))
^3H-Lyso-alkyl-PI [^3H-lyso-PI, reference compound]	32.2±3.1	–	–	–	–
lyso-alkyl-phosphatidylinositol [lyso-PI]	–	did not inhibit	~30	29.9 ± 6.0	–
phosphosaccharide core-lyso-alkyl-phosphatidylinositol [core-PI]	–	did not inhibit	~30	32.0 ± 5.0	No additive inhibitory effect
